Several values for one entry are separate records, joined by “and”; a condition that tells them apart may be missing. Equal values may be shown once.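 Assay format: 96-well plates, 48-hour exposure. GI50 = concentration required for 50% inhibition of growth. TGI: concentration producing complete growth inhibition.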
Key:
Assay in all cases: NCI anticancer screen, dose series, 48 h
ACHN renal = tested on: ACHN renal
CAKI-1 renal = tested on: CAKI-1 renal
HL-60(TB) leukemia = tested on: HL-60(TB) leukemia
MDA-MB-231 breast = tested on: MDA-MB-231 breast
MDA-MB-435 = tested on: MDA-MB-435
NCI-H522 lung = tested on: NCI-H522 lung
OVCAR-4 ovarian = tested on: OVCAR-4 ovarian
SK-MEL-2 melanoma = tested on: SK-MEL-2 melanoma
SN12C renal = tested on: SN12C renal
U251 CNS = tested on: U251 CNS

Compound	GI50 (ACHN renal)	TGI (ACHN renal)	GI50 (CAKI-1 renal) [µM]	TGI (CAKI-1 renal)	GI50 (HL-60(TB) leukemia)	TGI (HL-60(TB) leukemia)	GI50 (MDA-MB-231 breast) [µM]	TGI (MDA-MB-231 breast) [µM]	GI50 (MDA-MB-435) [µM]	TGI (MDA-MB-435) [µM]	GI50 (NCI-H522 lung)	TGI (NCI-H522 lung)	GI50 (OVCAR-4 ovarian)	TGI (OVCAR-4 ovarian)	GI50 (SK-MEL-2 melanoma) [µM]	TGI (SK-MEL-2 melanoma) [µM]	GI50 (SN12C renal) [µM]	TGI (SN12C renal)	GI50 (U251 CNS) [µM]	TGI (U251 CNS)
CON(C)C(=O)N1N=C(c2cc(F)ccc2F)SC1(CCCN)c1ccccc1 (stereo not given)	7.79 µM and 4.91 µM	22.5 µM and 21.8 µM	0.238	17.3 µM and 18.1 µM	0.0184 µM and < 0.01 µM	5.38 µM and 2.03 µM	< 0.01	0.039	< 0.01	< 0.01	0.0201 µM and < 0.01 µM	10.7 µM and 5.31 µM	4.27 µM and 3.37 µM	24.9 µM and 24.8 µM	< 0.01	0.561	< 0.01	16 µM and 16.1 µM	< 0.01	13.4 µM and 13.7 µM
CSc1nc2cc(S(=O)(=O)N3CCCCC3)ccc2s1	–	> 100 µM	–	> 100 µM	–	> 100 µM	–	> 100	–	> 100	–	> 100 µM	–	> 100 µM	–	> 100	–	> 100 µM	–	> 100 µM
CC[C@H](C)[C@H]1O[C@]2(C=C[C@@H]1C)C[C@@H]1C[C@@H](C/C=C(\C)[C@@H](O[C@H]3C[C@H](OC)[C@@H](O[C@H]4C[C@H](OC)[C@@H](NC)[C@H](C)O4)[C@H](C)O3)[C@@H](C)/C=C/C=C3\CO[C@@H]4[C@H](O)C(C)=C[C@@H](C(=O)O1)[C@]34O)O2	2.73 µM	10.8 µM	1.89	5.02 µM	1.88 µM	3.81 µM	2	4.4	1.79	3.62	1.75 µM	3.73 µM	3.3 µM	13.4 µM	2.54	7.07	3.04	11.3 µM	1.91	4.07 µM
C/C(=N\Nc1ccc(Cl)cn1)c1ccccn1	0.042 µM	27.1 µM	0.0452	2.64 µM	0.0359 µM	1.08 µM	0.0652	> 100	0.382	> 100	0.039 µM	9.99 µM	0.0485 µM	> 59.4 µM	0.72	> 100	0.134	> 100 µM	0.218	> 100 µM
Cc1ccc2c3c(c(=O)[nH]c2c1)C1(C(C#N)=C(N)O3)c2cc(Br)ccc2-c2ccc(Br)cc21	1.87 µM	4.15 µM	1.56	3.23 µM	18.8 µM	66.7 µM	1.7	3.6	2.05	4.7	1.61 µM	4.32 µM	1.72 µM	3.3 µM	2.52	6.72	1.92	4.03 µM	1.81	3.5 µM

From PubChem BioAssay (NCI)
